Test results reported in US8993721B2, “Peptides for targeting apoptotic cells and uses thereof” (Kyungpook National University Industry-Academic Cooperation …, priority 2008, dated 2015).
“Also recorded” adds a separate entry of the source. Where no end group is shown, it is not given here.

Legend:
[1] = tested on: etoposide-treated apoptotic cells (A549, H460, HeLa, L132, RAW); test: Microscopic observation of binding of the peptide to apoptotic cells (Example 3-1); format: cell-based
Protocol: Cells were cultured in chamber slide (Nalgene Nunc) and treated with 50 μM etoposide (Sigma) for a given period of time (A549 and HeLa cells: for 15 hours, H460 cells: 24 hours, L132 cells: 3 hours, RAW cells: 6 hours) to induce apoptosis. The cells were cultured in RMPI-1640 medium (A549 and H460 cells) or DMEM (HeLa, L132 and RAW cells) containing antibiotics (penicillin and streptomycin) and 10% FBS. All the cells were subcultured every 3 or 4 days. The apoptosis-induced apoptotic cells were washed with PBS and blocked with 1% BSA at 37° C. for 30 minutes. Then, the cells were reacted with 10 μM of the peptide labeled with fluorescein, at 4° C. for 1 hour. After washing, the cells were reacted with an annexin V reaction buffer containing Alexa594-labeled annexin V (Molecular Probes), at room temperature for 15 minutes. The cells were washed with PBS and then fixed with 4% paraformaldehyde for 5 minutes. Thereafter, after counterstaining using the nuclear stain 4′,6-diamidino-2-phenylindole (DAPI), followed by treatment with a mounting solution (Molecular Probes), images of the cells were obtained under a fluorescence microscope (Zeiss).

[2] = tested on: aorta of arteriosclerotic Ldlr(−/−) mouse; test: Molecular imaging of arteriosclerosis (Example 5); format: in vivo
Protocol: An arteriosclerotic animal model was established by feeding mice, in which low-density lipoprotein (LDL) receptor was deficient (Ldlr(−/−)) genetically, with a high-cholesterol diet for 8 weeks. At the tail vein of the arteriosclerotic mouse and normal mouse, the peptide having an amino sequence represented by SEQ ID NO: 1 (ApoPep-1) or a control peptide, labeled with Cy7.5 NIR fluorescence, was injected at a final concentration of 50 μM, under isoflurane anesthesia. Two hours later, with the mouse anesthetized, in vivo images of the NIR fluorescence were obtained using an Optix exPlore instrument. Following the in vivo imaging, NIR fluorescence was measured […] after isolating the aorta.

[3] = tested on: brain of stroke rat (middle cerebral artery occlusion/reperfusion); test: Molecular imaging of stroke (Example 6); format: in vivo
Protocol: A stroke model was established by occluding the left middle cerebral artery of a rat for 2 hours, followed by reperfusion. Two hours after the reperfusion, the peptide having an amino sequence represented by SEQ ID NO: 1 (ApoPep-1) and a control peptide, labeled with Cy7.5 NIR fluorescence, was intravenously injected at a final concentration of 50 μM to the stroke rat and a normal rat through the tail vein, under isoflurane anesthesia. One and three hours after the intravenous injection, NIR images of the head portion were obtained. Further, NIR fluorescence images of the brains of the rats of the 3 hour group were obtained.

[4] = tested on: heart of myocardial ischemic rat (ischemia/reperfusion model); test: Molecular imaging of myocardial ischemia (Example 7); format: in vivo; conditions: Cy7.5-labeled peptide i.v. 2 hours after reperfusion; imaged 2 hours after injection
Protocol: A myocardial ischemia model was established by occluding the coronary artery of a rat, followed by reperfusion (ischemia/reperfusion model). For the operation, a rat was anesthetized by intra-abdominally injecting 10 mg of phenobarbital and, followed by endobronchial intubation, a ventilator was connected. Thereafter, the thorax was cut open to expose the heart. The left anterior descending coronary artery was occluded for 30 minutes using a suture and, then, the blood was allowed to circulate. For a control group (Sham), the same operation was performed, except for the occlusion. Two hours after the reperfusion, the peptide having an amino sequence represented by SEQ ID NO: 1 (ApoPep-1), labeled with Cy7.5 NIR fluorescence, was intravenously injected to the rats of the myocardial ischemia group and the control group. Two hours after the peptide injection, NIR images of the heart portion were obtained. Then, NIR images were obtained after isolating the heart.

[5] = tested on: etoposide-treated apoptotic A549 cells; test: Microscopic observation of binding of the peptide to apoptotic cells, A549 (Example 9-1); format: cell-based, human
Protocol: (§1) Cells were cultured in chamber slide (Nunc) and treated with 50 μM etoposide (Sigma) for 16 hours (A549 cells) or 50 ng/ml trail (R&D Systems) for 16 hours (MDA-MB231 cells) to induce apoptosis. The cells were cultured in RMPI-1640 medium (A549 cells) or DMEM-High (MDA-MB231 cells) containing antibiotics (penicillin and streptomycin) and 10% FBS. All the cells were sub-cultured every 3 or 4 days. The apoptosis-induced apoptotic cells were washed with PBS and blocked with 1% BSA at 37° C. for 30 minutes. Then, the cells were reacted with 10 μM of the peptide labeled with fluorescein, at 4° C. for 1 hour. After washing, the cells were reacted with an annexin V reaction buffer containing Alexa594-labeled annexin V (Invitrogen) at room temperature for 15 minutes. The cells were washed with PBS and then fixed with 4% paraformaldehyde for 5 minutes. After treatment with a mounting solution containing the DAPI nuclear stain, images of the cells were obtained under a fluorescence microscope.

[6] = tested on: trail-treated apoptotic MDA-MB231 cells; test: Microscopic observation of binding of the peptide to apoptotic cells, MDA-MB231 (Example 9-1); format: cell-based
Protocol: as §1

apoptotic A549 cells = test: Competitive inhibition of binding to apoptotic cells by annexin V treatment (Example 9-2); format: cell-based, human; conditions: annexin V 1000 μM pre-treatment
Protocol: In order to further investigate the binding properties of the polypeptide of the present invention (ApoPep-2) to apoptotic cells, competitive inhibition by annexin V was measured. To this end, first, apoptotic A549 cells were pre-treated with annexin V, not labeled with fluorescence, at concentrations of 0, 500 and 1000 μM. Then, after reacting the cells with fluorescence-labeled annexin V under the same condition as described in Example <9-1>, the binding of the cells was observed under a fluorescence microscope.
Further, apoptotic A549 cells were pre-treated with annexin V, not labeled with fluorescence, at a concentration of 1000 μM. Then, after reacting the cells with fluorescence-labeled peptide under the same condition as described in Example <9-1>, the binding of the cells was observed under a fluorescence microscope.

[7] = tested on: A549 tumor xenotransplanted in nude mice; test: In vivo fluorescence imaging of targeting of apoptotic cells in tumor (Example 10); design: species or system mouse; conditions: fluorescein-labeled; large tumor (1 cm or larger)
[8] = etoposide-treated apoptotic cells
[9] = Cy7.5-labeled peptide 50 μM i.v.
[10] = 10 μM peptide 4° C. 1 hour, Alexa594-annexin V

Substance | labeling of normal cells not treated with etoposide ([1]; 10 μM fluorescein-labeled peptide 4° C. 1 hour, Alexa594-annexin V) | labeling of etoposide-treated apoptotic cells (fluorescence microscopy) ([1]; 50 μM etoposide, 10 μM fluorescein-labeled peptide 4° C. 1 hour, Alexa594-annexin V room temperature 15 minutes) | location of peptide binding relative to annexin V binding (merge) [1, 8] | NIR fluorescence imaged from the back, normal mouse ([2]; Cy7.5-labeled peptide 50 μM) | NIR fluorescence imaged from the back, arteriosclerotic mouse, compared with control peptide ([2]; Cy7.5-labeled peptide 50 μM, tail vein, two hours later) | NIR fluorescence after exposing the aorta by cutting the abdomen open, compared with control peptide ([2]; arteriosclerotic mouse) | intensity of the fluorescence relative to the control peptide ([2]; arteriosclerotic mouse, back image (FIG. 8B)) | fluorescence of isolated brain of stroke rat ([3]; 3 hour group, left middle cerebral artery occluded) | NIR fluorescence at the head portion of the normal rat [3, 9] | NIR fluorescence at the head portion of the stroke rat at 3 hours [3, 9] | NIR fluorescence at the head portion of the stroke rat at 1 hour ([3]; Cy7.5-labeled peptide 50 μM i.v., 2 hours after reperfusion) | NIR fluorescence of the heart portion, myocardial ischemic rat versus control group (Sham) rat [4] | labeling of A549 cells not treated with etoposide [5, 10] | labeling of etoposide-treated apoptotic A549 cells ([5]; 50 μM etoposide 16 hours, 10 μM fluorescein-labeled peptide 4° C. 1 hour, Alexa594-annexin V) | location of peptide binding relative to annexin V binding (merge), A549 [5, 8] | labeling of trail-treated apoptotic MDA-MB231 cells ([6]; 50 ng/ml trail 16 hours, 10 μM fluorescein-labeled peptide 4° C. 1 hour, Alexa594-annexin V) | labeling of MDA-MB231 cells not treated with trail [6, 10] | location of peptide binding relative to annexin V binding (merge), MDA-MB231 ([6]; trail-treated apoptotic cells) | binding of fluorescence-labeled peptide after pre-treatment with unlabeled annexin V (apoptotic A549 cells) | fluorescence signal from the tumor at 5 hours [7]
CQRPPR (also: fluorescein or Cy7.5 label) [ApoPep-1, peptide CQRPPR screened for macrophages; used fluorescein- or Cy7.5-labeled] | no labeling was observed | labeling was observed | at the same locations | almost nonexistent | stronger NIR fluorescence | much stronger | about two times that of the control peptide | fluorescence was observed at the left hemisphere | almost nonexistent | very strong fluorescence | NIR fluorescence was observed | much stronger NIR fluorescence | – | – | – | – | – | – | – | –
CSVAPR (also: fluorescein or Cy7.5 label) [ApoPep-2, peptide CSVAPR screened for endothelial cells; used fluorescein- or Cy7.5-labeled] | – | – | – | – | – | – | – | – | – | – | – | – | hardly bound to the untreated cells; also recorded: no labeling was observed | strongly bound to the apoptotic cells; also recorded: labeling was observed | at the same locations | strongly bound to the apoptotic cells; also recorded: labeling was observed | hardly bound to the untreated cells; also recorded: no labeling was observed | at the same locations | not inhibited | strong fluorescence signal
